Assay results reported in patent US12435061B2 (priority 2020, dated 2025).
Values after ≈ are worked out from the molar mass of the structure shown. Values joined by “and” are separate entries in the source; they are usually repeats but may differ in a detail not shown here. Equal values may be shown once. Read-outs that look alike come from different tables or passages of the source.

What was measured:
[1] = biological target: T1, hTRPV3 (Homo sapiens (Human), UniProt Q8NET8); experiment: Whole-cell patch clamp, hTRPV3 Phase 1 / Phase 2 currents; format: cell-based
In short: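 Whole-cell recordings on induced TRPV3 cells replated on coverslips, held at −40 mV with 400 ms ramps from −120 to +100 mV every 5 s; currents read at −80 and +80 mV. Ringer's external solution; current activated by heating to ≥28 °C or 20 μM 2-APB.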

[2] = biological target: rat (r) TRPV3 (Rattus norvegicus, UniProt E9PU00); experiment: Whole-cell patch clamp, rTRPV3 Phase 1 / Phase 2 currents; format: cell-based
Text: Whole-cell patch clamp experiments permit the detection of currents through the TRPV3 channel in the cell line described above. A glass electrode is brought into contact with a single cell and the membrane is then ruptured, permitting control of the voltage of the cell membrane and measurement of currents flowing across the membrane using the amplifier attached to the electrode. A perfusion system permits control of the extracellular solution, including the addition of blockers and activators of the current. The current can be activated by heating this solution to 28° C. or warmer or by addition of 20 μM 2-APB to the solution.
TRPV3 cells were induced 20-48 hours, removed from growth plates, and replated at low density (to attain good single-cell physical separation) on glass coverslips for measurement. In some cases, cells were grown in low density overnight on glass coverslips. Patch clamp recordings were made in the whole-cell mode with a holding potential of −40 mV. Every 5 seconds, a voltage ramp was applied from −120 to +100 mV, 400 ms in duration. Currents elicited were quantified at −80 mV and +80 mV. The internal solution consisted of 140 mM cesium aspartate, 10 mM EGTA, 2.27 mM MgCl2, 1.91 mM CaCl2) and 10 mM HEPES, pH to 7.2 with KOH; with 50 nM calculated free […]. External solution was Ringer's solution described above. Upon addition of 2-APB or upon heating of the extraceullar solution as described above, TRPV3 current was induced only in TRPV3-expressing cells and not in parental HEK293 TREx cells. […] Removal of the stimulus caused most of the current to go away, and inhibitor addition could still inhibit this current.
In Tables 3 and 4, Phase 1 refers to Phase 1 current for human (h) TRPV3 or rat (r) TRPV3, and Phase 2 refers to Phase 2 current for human (h) TRPV3 or rat (r) TRPV3. The hTRPV3 and rTRPV3 assays were performed as described herein. hERG refers to the inhibition the human ERG (hERG) channel. NaV1.5, refers to the pore forming aL-subunit of the voltage-dependent cardiac Na(+) channel and is an integral membrane protein involved in the initiation and conduction of action potentials. hTRPV3 HAMA IC50 refers to the IC50 of TRPV3 cells stably expressed in TRex-293 cells. Solubility Ringer refers to the compounds' solubility in Ringer's solution. LM T1/2 refers to liver microsome half-lives in either rat or human liver microsomes. FLIPR IC50 refers to the IC50 of the test compounds against recombinant hTRPV3 cells.

[3] = Aqueous solubility assay in Normal Ringer Solution; conditions: for solubility at 40 min: saline or isotonic, kinetic from dmso stock
Method: Following vortex and incubation for a sufficient time (e.g. 40 minutes at room temperature), solutions were filtered, quenched with acetonitrile, and analyzed by Liquid Chromotography. Solubility Limits were determined by comparison to a standard curve.

[4] = biological target: T1, hTRPV3; experiment: hTRPV3 HAMA IC50 assay (Hamamatsu FDSS6000 calcium flux, TRex-293 cells); conditions: 5 min
Method: IC50s were calculated using CBIS from ChemInnovation (San Diego).

[5] = Metabolic Stability assay, rat liver microsomes; format: in vitro ADME
In short: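 Test article at 1 μM starting concentration incubated with human or rat liver microsomes at 37 °C, with the reaction started by NADPH regeneration components. Aliquots were quenched in cold acetonitrile/MeOH/H2O at 0, 7, 15, 30 and 60 min and analysed by HPLC/MS/MS.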

[6] = biological target: human hERG channels (Homo sapiens (Human), UniProt Q12809); experiment: hERG assay (patch clamp, CHO cells); format: cell-based
Method: hERG assay: Briefly, cells from a stable CHO cell line expressing human hERG channels were plated onto glass coverslips and used in patch clamp assays on the same day. After seal formation and break-in to whole-cell configuration, voltage steps were applied as follows: from the holding potential of −90 mV, a 2 second long step to +40 mV was applied, followed by a 1.5 second step to −50 mV. These steps were applied once every 5 seconds. The hERG current was measured at the peak of the outward tail current at −50 mV. The pipette solution was potassium aspartate based and the external solution was normal Ringer's.
All currents were recorded in whole-cell configuration using an Axopatch 200B controlled by pClamp 10 software (Molecular Devices). In each cell, when the current stabilized, the compound was perfused locally onto the cell. Two to three concentrations of the test compound were applied to each cell. At the end of compound testing, 10 μM verapamil was applied to completely block hERG currents and assess leak current.
Data were analyzed by computing the degree of current block after compound addition compared with the unblocked current amplitude. The unblocked current was predicted from the interpolation between the current amplitude prior to compound addition and after compound washout. The resulting percent block at each concentration was used to make a concentration-response plot and fitted to the Hill equation: percent block=minimum block+(maximum block-minimum block)/(1+10^(Hill slope*(log IC50−concentration))).

[7] = Metabolic Stability assay, human liver microsomes; format: in vitro ADME
Method: Metabolic Stability assay: The metabolic stability was determined by adding compound dissolved in DMSO to human or rat, liver microsomes. Briefly, assays were run with a starting concentration of 1 μM test article. The reaction was started by addition of NADPH regeneration components at 37° C. at which time an aliquot was immediately quenched in ice-cold acetonitrile/MeOH/H2O solution. Reaction mixture was incubated at 37° C. on a shaker, and additional aliquots were taken at 7, 15, 30 and 60 minutes. Following quench and centrifugation, samples were analyzed on HPLC/MS/MS.

[8] = Phase 1 current, inward, whole-cell patch clamp, read-out: hTRPV3 Patch P1 Inwd
[9] = Phase 1 current, read-out: hTRPV3 (nM) (Phase 1)
[10] = Phase 2 current, read-out: hTRPV3 (nM) (Phase 2)
[11] = Phase 1 current, read-out: rTRPV3 (nM) (Phase 1)
[12] = Phase 2 current, read-out: rTRPV3 (nM) (Phase 2)
[13] = Phase 1 current, human TRPV3, read-out: hTRPV3 (nM) Phase 1

Chain of rat (r) TRPV3 (E9PU00 1-791): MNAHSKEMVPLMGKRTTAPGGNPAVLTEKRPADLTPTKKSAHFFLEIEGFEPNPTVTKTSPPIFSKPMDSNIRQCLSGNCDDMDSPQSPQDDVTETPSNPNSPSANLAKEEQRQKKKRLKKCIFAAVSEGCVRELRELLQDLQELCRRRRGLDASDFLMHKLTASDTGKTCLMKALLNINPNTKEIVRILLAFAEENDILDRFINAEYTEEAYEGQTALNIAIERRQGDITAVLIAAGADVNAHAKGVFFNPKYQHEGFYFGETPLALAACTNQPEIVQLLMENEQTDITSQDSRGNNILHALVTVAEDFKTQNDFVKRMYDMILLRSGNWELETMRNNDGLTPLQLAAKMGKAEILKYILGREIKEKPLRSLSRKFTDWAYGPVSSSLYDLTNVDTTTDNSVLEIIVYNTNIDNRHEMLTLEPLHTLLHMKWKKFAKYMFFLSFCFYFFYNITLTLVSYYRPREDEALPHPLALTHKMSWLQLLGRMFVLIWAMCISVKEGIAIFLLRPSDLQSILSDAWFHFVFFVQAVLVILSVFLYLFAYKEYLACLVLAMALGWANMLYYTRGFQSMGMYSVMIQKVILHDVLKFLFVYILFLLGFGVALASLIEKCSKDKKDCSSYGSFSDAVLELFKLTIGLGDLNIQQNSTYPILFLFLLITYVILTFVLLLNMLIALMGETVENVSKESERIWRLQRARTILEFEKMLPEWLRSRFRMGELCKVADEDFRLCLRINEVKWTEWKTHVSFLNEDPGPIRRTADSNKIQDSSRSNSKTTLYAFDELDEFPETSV
T1 sequence (Q8NET8 whole entry): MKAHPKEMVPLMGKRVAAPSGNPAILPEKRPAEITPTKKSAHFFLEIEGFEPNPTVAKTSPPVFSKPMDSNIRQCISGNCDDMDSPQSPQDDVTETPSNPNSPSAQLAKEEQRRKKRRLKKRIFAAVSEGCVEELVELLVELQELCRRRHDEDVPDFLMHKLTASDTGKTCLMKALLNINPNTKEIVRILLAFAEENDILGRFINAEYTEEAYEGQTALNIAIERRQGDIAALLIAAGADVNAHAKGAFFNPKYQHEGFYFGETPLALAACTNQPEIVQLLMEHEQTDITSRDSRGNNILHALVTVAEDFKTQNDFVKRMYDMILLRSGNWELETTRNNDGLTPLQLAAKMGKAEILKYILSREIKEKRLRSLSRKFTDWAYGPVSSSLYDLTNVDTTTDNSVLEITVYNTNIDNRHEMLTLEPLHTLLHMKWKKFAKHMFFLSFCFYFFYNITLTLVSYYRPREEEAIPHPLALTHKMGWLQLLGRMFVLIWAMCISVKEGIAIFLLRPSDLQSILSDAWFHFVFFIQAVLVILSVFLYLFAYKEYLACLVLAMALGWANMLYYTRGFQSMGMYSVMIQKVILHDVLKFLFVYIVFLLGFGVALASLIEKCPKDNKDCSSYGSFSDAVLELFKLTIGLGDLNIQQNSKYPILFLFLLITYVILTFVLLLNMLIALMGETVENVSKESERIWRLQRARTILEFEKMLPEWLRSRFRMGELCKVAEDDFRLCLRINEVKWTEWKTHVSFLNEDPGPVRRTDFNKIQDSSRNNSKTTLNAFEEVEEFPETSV
Chain of human hERG channels (Q12809 whole entry): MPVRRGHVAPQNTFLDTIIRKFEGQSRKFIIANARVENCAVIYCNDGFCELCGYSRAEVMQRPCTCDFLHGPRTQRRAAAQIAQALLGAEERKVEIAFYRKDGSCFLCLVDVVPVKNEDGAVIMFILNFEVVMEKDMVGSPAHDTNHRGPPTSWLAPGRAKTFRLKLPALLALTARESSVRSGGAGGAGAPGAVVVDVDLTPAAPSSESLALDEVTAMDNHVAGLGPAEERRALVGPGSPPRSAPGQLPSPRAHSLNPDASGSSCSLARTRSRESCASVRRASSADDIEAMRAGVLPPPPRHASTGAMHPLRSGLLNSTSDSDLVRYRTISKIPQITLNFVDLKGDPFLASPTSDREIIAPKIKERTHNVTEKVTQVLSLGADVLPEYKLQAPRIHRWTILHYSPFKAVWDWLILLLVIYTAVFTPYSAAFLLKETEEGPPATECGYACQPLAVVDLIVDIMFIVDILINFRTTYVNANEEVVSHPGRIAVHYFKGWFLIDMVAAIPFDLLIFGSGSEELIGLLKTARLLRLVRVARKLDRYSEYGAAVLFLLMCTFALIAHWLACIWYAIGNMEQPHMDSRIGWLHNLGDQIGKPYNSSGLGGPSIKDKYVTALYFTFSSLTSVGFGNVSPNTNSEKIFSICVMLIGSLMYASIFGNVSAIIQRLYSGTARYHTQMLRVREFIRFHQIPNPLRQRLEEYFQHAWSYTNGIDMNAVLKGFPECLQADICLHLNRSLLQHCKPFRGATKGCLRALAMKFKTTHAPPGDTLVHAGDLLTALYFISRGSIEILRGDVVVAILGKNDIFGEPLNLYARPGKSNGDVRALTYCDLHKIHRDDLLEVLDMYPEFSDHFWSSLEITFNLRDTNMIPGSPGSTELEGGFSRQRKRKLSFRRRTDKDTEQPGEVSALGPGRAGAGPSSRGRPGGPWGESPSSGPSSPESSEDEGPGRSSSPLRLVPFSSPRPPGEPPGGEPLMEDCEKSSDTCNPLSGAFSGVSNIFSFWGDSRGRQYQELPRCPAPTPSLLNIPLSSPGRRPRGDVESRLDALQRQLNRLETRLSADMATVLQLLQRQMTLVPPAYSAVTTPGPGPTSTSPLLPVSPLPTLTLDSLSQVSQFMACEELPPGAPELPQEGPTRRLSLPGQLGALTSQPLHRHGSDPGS

Compound | IC50 [1, 8] [nM] | IC50 [1, 9] [nM] | IC50 [2, 11] [nM] | half-life at 1 μM ([5]; read-out: LM T1/2 (min) (rat)) | IC50 ([6]; (PL), read-out: hERG (nM) (PL)) [M] | solubility at 40 min ([3]; Normal Ringer Solution) [µM] | half-life at 1 μM ([5]; read-out: LM T1/2 (min) rat) [min] | half-life at 1 μM ([7]; read-out: LM T1/2 (min) human) [min] | IC50 [1, 13] [nM] | also measured
NC(=O)c1cc(-c2ccc(F)cc2)ccc1N1CC[C@H](Oc2ccc(C(F)(F)F)cn2)C1 [Compound 1-65, (S)-4′-fluoro-4-(3-(5-(trifluoromethyl)pyridin-2-yloxy)pyrrolidin-1-yl)biphenyl-3-carboxamide] | 100 to 1000 | 475 | 1140 | 77.3 |  |  |  |  |  | IC50 ([1]; Phase 2 current, inward, whole-cell patch clamp, read-out: hTRPV3 Patch P2 Inwd): 100 to 1000 nM; IC50 [1, 10]: 417 nM; IC50 [2, 12]: 3250 nM; Solubility Ringer (nM) ([3]; Normal Ringer Solution, room temperature): BLQ; hTRPV3 HAMA IC50 (nM) (5 min) [4]: no fit (5 min)
O=C(c1ccc(F)cn1)N1CCC(c2ccc(-c3ccccc3C3CC3)cc2CO)C1 (centres unmarked) [Compound 2-72, (3-(2′-cyclopropyl-3-(hydroxymethyl)biphenyl-4-yl)pyrrolidin-1-yl)(5-fluoropyridin-2-yl)methanone] |  |  |  |  | 8.46e-06 | ~25.5 (≈ 10.6 µg/mL) | 31.3 | 17.5 |  | IC50 ([6]; (M), read-out: hERG): 9.24e-06 M
O=C(c1ccc(C(F)(F)F)cn1)N1CCC(c2ccc(-c3ccccc3C3CC3)cc2CO)C1 (centres unmarked) [Compound 2-58, (3-(2′-cyclopropyl-3-(hydroxymethyl)biphenyl-4-yl)pyrrolidin-1-yl)(5-(trifluoromethyl)pyridin-2-yl)methanone] | 10 to 100 |  |  |  | 1.5e-05 | ~5.2 (≈ 2.43 µg/mL) | 47.9 | 54.6 | 27.3 | 
CC(C)c1ccccc1-c1ccc(C2CCN(C(=O)c3cc(Cl)ccn3)C2)c(CO)c1 (centres unmarked) [Compound 2-49, (4-chloropyridin-2-yl)(3-(3-(hydroxymethyl)-2′-isopropylbiphenyl-4-yl)pyrrolidin-1-yl)methanone] | 10 to 100 |  |  |  | 6.97e-06 | > 12.8 | 20.6 | 12.2 | 25.7 | 
OCc1cc(C(O)c2ccccc2Cl)ccc1N1CC[C@H](Oc2ncccc2Cl)C1 (stereo partly drawn) [Compound 1-262, (2-chlorophenyl)(4-((S)-3-(3-chloropyridin-2-yloxy)pyrrolidin-1-yl)-3-(hydroxymethyl)phenyl)methanol] | 10 to 100 | 23.7 | ~20 | 14.6 |  |  |  |  |  | IC50 [2, 12]: 21.3 nM; solubility at 40 min [3]: ~4.7 µM (≈ 2.09 µg/mL)
CCc1cc(C)ccc1-c1ccc(C2CCN(C(=O)c3ccc(F)cn3)C2)c(CO)c1 (centres unmarked) [Compound 2-62, (3-(2′-ethyl-3-(hydroxymethyl)-4′-methylbiphenyl-4-yl)pyrrolidin-1-yl)(5-fluoropyridin-2-yl)methanone] | 10 to 100 |  |  |  | 1.77e-05 | > 12.1 | 14 | 14.9 | 64.9 | 
CCc1ccccc1-c1ccc(C2CCN(C(=O)c3ncccc3Cl)C2)c(CO)c1 (centres unmarked) [Compound 2-52, (3-chloropyridin-2-yl)(3-(2′-ethyl-3-(hydroxymethyl)biphenyl-4-yl)pyrrolidin-1-yl) methanone] | 10 to 100 |  |  |  |  | > 17.8 | 9.2 | 14.4 | 67.3 | 
O=C(c1ccc(Cl)cn1)N1CCC(c2ccc(-c3ccccc3C3CC3)cc2CO)C1 (centres unmarked) [Compound 2-56] | < 10 |  |  |  | 7.29e-06 | ~5.1 (≈ 2.21 µg/mL) |  | 24.6 | 2.04 | 
CC(C)c1ccccc1-c1ccc(C2CCN(C(=O)c3ccc(F)cn3)C2)c(CO)c1 (centres unmarked) [Compound 2-29, (5-fluoropyridin-2-yl)(3-(3-(hydroxymethyl)-2′-isopropylbiphenyl-4-yl)pyrrolidin-1-yl)methanone] | < 10 |  |  |  | 7.48e-06 | > 16.6 | 16.8 | 8.8 | 6.03 | IC50 ([6]; (M), read-out: hERG): 7.38e-06 M; IC50 ([2]; rTRPV3 (nM) Phase 1, Phase 1 current, rat TRPV3): 5.56 nM
CCc1ccccc1-c1ccc(C2CCN(C(=O)c3cccc(Cl)n3)C2)c(CO)c1 (centres unmarked) [Compound 2-53, (6-chloropyridin-2-yl)(3-(2′-ethyl-3-(hydroxymethyl)biphenyl-4-yl)pyrrolidin-1-yl) methanone] | < 10 |  |  |  |  | ~7.7 (≈ 3.24 µg/mL) | 12.3 | 24.9 | 8.39 | 
OCc1cc([C@@H](O)c2ccccc2Cl)ccc1N1CC[C@H](Oc2ncccc2F)C1 [Compound 1-321, (2-chlorophenyl)(4-((S)-3-(3-fluoropyridin-2-yloxy)pyrrolidin-1-yl)-3-(hydroxymethyl)phenyl)methanol] | 10 to 100 | 12.2 | 5.37 | 16.9 |  | > 9.8 |  |  |  | hTRPV3 (nM) (Phase 2) ([1]; Phase 2 current): Incomplete Block; IC50 [1, 10]: ~30 nM and ~44 nM; IC50 ([6]; (PL), read-out: hERG): ~3.73e-06 M; IC50 ([2]; rTRPV3 (nM) (Phase 2), Phase 2 current): ~15.7 nM
NC(=O)c1cc(-c2ccccc2)ccc1N1CC[C@@H](Oc2ccc(C(F)(F)F)cn2)C1 [Compound 1-33, (R)-4-(3-(5-(trifluoromethyl)pyridin-2-yloxy)pyrrolidin-1-yl)biphenyl-3-carboxamide] | 100 to 1000 | 139 | 283 |  |  |  |  |  |  | IC50 [2, 12]: 776 nM; hTRPV3 HAMA IC50 (nM) (5 min) [4]: no fit (5 min)
NC(=O)c1cc(C(F)(F)F)ccc1N1CC[C@H](Oc2ccc(C(F)(F)F)cn2)C1 [Compound 1-58, (S)-5-(trifluoromethyl)-2-(3-(5-(trifluoromethyl)pyridin-2-yloxy)pyrrolidin-1-yl)benzamide] |  |  |  | > 60 |  | > 11.3 |  |  |  | IC50 ([1]; hTRPV3 (nM) (Phase 1)): 1250 nM and 1520 nM and > 3200 nM; IC50 ([1]; hTRPV3 Patch P2 Inwd (nM)): 100 to 1000 nM; IC50 ([1]; read-out: hTRPV3 (nM) (Phase 1)): 1040 nM; IC50 ([1]; read-out: hTRPV3 (nM) (Phase 2)): 241 nM; hTRPV3 HAMA IC50 (nM) (5 min) [4]: no fit (5 min); half-life at 1 μM ([7]; read-out: LM T1/2 (min) (human)): > 60 min
